We go through one molecule from US12350273B2, “Treatment of SMA” (Hoffmann-La Roche Inc., priority 2017, dated 2025).

Molecules are shown by their SMILES. Like-named read-outs stand apart in the source and are kept apart here.

One data set deals with MADD gene transcript. The experiment in a line: 2-week dose-range finding toxicity study in cynomolgus monkey: MADD splicing in spleen, duodenum, testis. The format is in vivo. As to conditions: cynomolgus monkey 2 weeks, highest dose (0.75, 1.5, 3 and 6 mg/kg/day tested); all three organs. As for the experimental part:
Similar investigations were integrated into the 2-week dose-range finding toxicity study conducted in the cynomolgus monkey with RO7034067. For this purpose, spleen, duodenum, and testis were analyzed from the animals treated with 0.75, 1.5, 3 and 6 mg/kg/day. […] Since secondary pharmacology was detected in spleen, this organ was further analyzed for transcriptome-wide mRNA splicing or expression changes by RNA-sequencing. […] Furthermore, a dose-dependent trend for pathway expression changes was not detected. Therefore, while the few changes in RO7034067-mediated alternative transcript splicing are consistent with in vitro data and those of other SMN2 splicing modifiers, they seem not to fundamentally affect biological pathways or processes under the conditions of this study.

The test system of data set [1] is SMN protein. Kind of data set: Study BP39055 Part 1: SMN protein in Type 2 and 3 SMA patients. The format is in vivo, human. The text has this:
(§1) Study BP39055 is a two-part operationally seamless, multi-center, randomized, placebo-controlled, double-blind study to investigate the safety, tolerability, pharmacokinetics (PK), pharmacodynamics (PD) and efficacy of RO7034067 in Type 2 and 3 spinal muscular atrophy (SMA) patients. The study consists of an exploratory dose-finding part (Part 1) and a confirmatory part (Part 2).
(§2) The primary objective of Part 1 is to evaluate the safety, tolerability, PK and PD of RO7034067 in patients with Type 2 and Type 3 (ambulant or non-ambulant) SMA, and to select the dose for Part 2 of the study.
(§3) Part 1 was a double-blinded, placebo-controlled, randomized (2:1 RO7034067:placebo), exploratory dose-finding study in Type 2 and Type 3 (ambulant and non-ambulant) SMA patients. This will be followed by an open-label extension (OLE) at the same dose as selected for Part 2 of the study.
(§4) Part 1 of the study enrolled patients in two age groups: • Group A: adolescent and adult patients aged 12 25 years • Group B: children aged 2 11 years RO7034067 dose levels were investigated in a staggered, dose escalation manner in both age groups.
(§5) The dose recommended by the IMC for this age group according to the target AUC0-24 h,ss of 700 ng[…]h/mL was 0.02 mg/kg (see IMC recommendation of 12 Dec. 2016 in Appendix 1); 10 patients aged 3-11 years were enrolled in Cohort B1. • At the same time point (i.e., once safety and tolerability were confirmed based on the review of at least 4 weeks of treatment at 3 mg once daily in 9 patients in Cohort A1), enrolment was opened to another cohort of 9 adult and adolescent patients (Cohort A2) receiving RO7034067 5 mg once daily (see IMC recommendation of 19 Jan. 2017 in Appendix 1). As per protocol, the higher dose level was determined such as to achieve maximum SMN protein increase, without exceeding the exposure cap (Cmax 400 ng/mL; mean AUC0 24 h,ss 2000 ng[…]h/mL); 10 patients aged 13[…]24 years were enrolled in Cohort A2. • Based on the review of a minimum of 4 weeks of treatment at 0.02 mg/kg in 9 patients enrolled in Cohort B1, the following recommendations were made by the IMC: i) to increase the dose in these patients to 0.05 mg/kg without exceeding a cap dose of 3 mg, and ii) to enroll a minimum of 9 additional patients aged 2[…]11 years at a dose of 0.05 mg/kg without exceeding a cap dose of 3 mg (Cohort B2), targeting at least 5 patients aged 2[…]6 years (see IMC recommendation of 13 Mar. […] At the same time point, enrollment was opened to another cohort of 9 patients at the dose of 0.25 mg/kg without exceeding a cap dose of 5 mg (Cohort B3), determined such as to achieve maximum Survival of Motor Neuron (SMN) protein increase, without exceeding the exposure cap (Cmax 400 ng/mL; mean AUC0-24 h,ss 2000 ng[…]h/mL); 10 patients aged 2[…]11 years were enrolled in Cohort B3. • Upon completion of at least 12 weeks of placebo-controlled treatment by a minimum of 9 patients of each cohort, the IMC reviewed all available data from the cohort to make the decision to switch placebo patients to active treatment at the dose tested in their respective cohort. Dates of the IMC decisions to switch placebo patients to active treatment in the respective cohorts are provided in Section 1.3. • For the last cohort in Part 1 (Cohort B3), all available safety, tolerability, PK and PD data following completion of a minimum of 4 weeks treatment by the 9th patient (including all available data for the 10th patient of the last cohort who was enrolled approximately 1 week after the 9th patient, and all available data from all previous cohorts) were reviewed by the IMC in order to select the dose to be administered in Part 2 of the study. This dose selection was confirmed by the external iDMC following review of the same data package. […]

Data set [2] deals with SMN protein. Kind of data set: SMN protein (HTRF) in brain and quadriceps muscle of SMNΔ7 mice. The format is in vivo. As for the experimental part:
FIG. 1A-FIG. 1D: Increase in SMN Protein Expression In Vivo • HET=heterogygous. • C/C-allele mice and SMNΔ7 mice were treated with RO7034067. One hour after the last dose, brains and quadriceps muscles were collected and levels of SMN protein were assessed by HTRF. FIG. 1A. SMN protein in brains of C/C-allele mice. FIG. 1B. SMN protein in brains of SMNΔ7 mice. FIG. 1C. SMN protein in quadriceps muscle of C/C-allele mice. FIG. 1D. SMN protein in quadriceps muscle of SMNΔ7 mice. Data represent means±SEM of 5-6 animals per group and are expressed as fold change vs. vehicle-treated controls. *=p<0.05, **=p<0.01, ***=p<0.001 vs. untreated controls.
Adult C/C-allele mice were treated for 10 days with vehicle or RO7034067 (1, 3 or 10 mg/kg per os [PO], daily), and PND3 SMNΔ7 mice were treated for 7 days with vehicle or RO7034067 (0.1, 0.3, 1 or 3 mg/kg intraperitoneal [IP], daily). […] In SMNΔ7 mice, the SMN protein increase was only partial in both brain and muscle, reaching approximately 43% (brain) and 55% (muscle) of protein levels in heterozygous mice.
A general note: Time-resolved FRET reads energy transfer from a long-lived donor to a nearby acceptor.

Data set [3] is described as follows: Study BP39055 Part 1: pharmacokinetics (AUC0-24h,ss) in SMA patients. The format is in vivo, human. As to conditions: for AUC(0-t): human, in vivo, read-out: estimated AUC0-24h,ss, median.
Description: as §1, §2, §3, §4, §5

With `Cc1cn2nc(-c3cc(=O)n4cc(N5CCNC6(CC6)C5)ccc4n3)cc(C)c2n1` [RO7034067, 7-(4,7-diazaspiro[2.5]octan-7-yl)-2-(2,8-dimethylimidazo[1,2-b]pyridazin-6-yl)pyrido[1,2-a]pyrimidin-4-one], in the data set with MADD gene transcript, the “mRNA isoform specific qPCR of MADD gene transcript” value is on record as “secondary pharmacological response”. The “Fold-Increase from the Baseline in SMN Protein on Day 28, median” value in the data set on SMN protein [1] (0.02 mg) was 1.09 fold; with SMN protein [1] (0.05 mg) it was 1.51 fold; in the data set with SMN protein [1] (0.15 mg/kg), 1.67 fold; with SMN protein [1] (0.25 mg/kg) it was 1.96 fold; with SMN protein [1] (3 mg), 2.25 fold; with SMN protein [1] (5 mg), 2.51 fold. Further, the “SMN protein increase versus baseline (median)” value with SMN protein [1] (0.25 mg/kg, 2-11 year age group) was 96%. In the data set with SMN protein [1] (5 mg, SMA patients 12-25 years old), the “median SMN protein increase versus baseline” value is reported as 151%. The “SMN protein in brain as share of protein levels in heterozygous mice” value in the data set on SMN protein [2] (SMNΔ7 mice, brain) is recorded as “approximately 43%”. Also, the “SMN protein in muscle as share of protein levels in heterozygous mice” value in the data set on SMN protein [2] (SMNΔ7 mice, muscle) was roughly 55%. For the same molecule, the “SMN protein levels in brain and muscle tissue, maximum effect” value with SMN protein [2] (neonatal SMNΔ7 mice, 1-3 mg/kg IP daily, 7 days) is reported as 2-3 fold. Moreover, the “increase in SMN protein possible” value with SMN protein [2] (severe SMNΔ7 mouse model) is “more than 100%”. The AUC(0-t) is 133 ng·h/mL in data set [3] (2-11 yr, 0.02 mg/kg); 407 ng·h/mL in data set [3] (2-11 yr, 0.05 mg/kg); 822 ng·h/mL in data set [3] (2-11 yr, 0.15 mg/kg); 1450 ng·h/mL in data set [3] (2-11 yr, 0.25 mg/kg); 1040 ng·h/mL in data set [3] (12-25 yr, 3 mg); 1610 ng·h/mL in data set [3] (12-25 yr, 5 mg). Moreover, in data set [3] (selected BP39055 Part 2 dose, all patients 2-25 years of age), the “predicted mean exposure (AUC0-24h,ss)” value is reported as 1690 ng·h/mL.
